# In ChEMBL document CHEMBL5215002, “Selective Inhibition of PTP1B by New Anthraquinone Glycosides from Knoxia valerianoides” (J Nat Prod, 2022):
# Active and inactive are the calls of the source. The calls are words filed in the database; no cut-off is given here.
# Experiments:
# Homo sapiens = organism: Homo sapiens; experiment: Selectivity index, ratio of IC50 for inhibition of recombinant human TCPTP (1 to 314 residues) expressed in baculovirus infected insect cells to IC50 for inhibition of N-terminal His-tagged recombinant human PTP1B expressed in Escherichia coli
# [1] = molecular target: T1, Tyrosine-protein phosphatase non-receptor type 1 (Homo sapiens, UniProt P18031); experiment: Inhibition of N-terminal His-tagged recombinant human PTP1B expressed in Escherichia coli
# T1 sequence (P18031 whole entry): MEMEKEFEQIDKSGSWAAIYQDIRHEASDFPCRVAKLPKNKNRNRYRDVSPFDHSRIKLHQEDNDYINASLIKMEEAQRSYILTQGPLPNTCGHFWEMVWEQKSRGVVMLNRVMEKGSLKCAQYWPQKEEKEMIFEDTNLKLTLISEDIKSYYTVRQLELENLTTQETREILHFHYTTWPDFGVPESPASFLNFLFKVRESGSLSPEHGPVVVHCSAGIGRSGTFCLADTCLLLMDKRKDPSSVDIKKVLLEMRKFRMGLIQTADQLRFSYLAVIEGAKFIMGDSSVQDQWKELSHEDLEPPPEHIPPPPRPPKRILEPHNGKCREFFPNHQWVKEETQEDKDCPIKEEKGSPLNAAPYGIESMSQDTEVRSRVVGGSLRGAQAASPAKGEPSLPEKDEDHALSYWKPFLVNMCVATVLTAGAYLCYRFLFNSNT
# [2] = molecular target: T2, Tyrosine-protein phosphatase non-receptor type 2 (Homo sapiens, UniProt P17706); experiment: Inhibition of recombinant human TCPTP (1 to 314 residues) expressed in baculovirus-insect cells
# T2 sequence (P17706 whole entry): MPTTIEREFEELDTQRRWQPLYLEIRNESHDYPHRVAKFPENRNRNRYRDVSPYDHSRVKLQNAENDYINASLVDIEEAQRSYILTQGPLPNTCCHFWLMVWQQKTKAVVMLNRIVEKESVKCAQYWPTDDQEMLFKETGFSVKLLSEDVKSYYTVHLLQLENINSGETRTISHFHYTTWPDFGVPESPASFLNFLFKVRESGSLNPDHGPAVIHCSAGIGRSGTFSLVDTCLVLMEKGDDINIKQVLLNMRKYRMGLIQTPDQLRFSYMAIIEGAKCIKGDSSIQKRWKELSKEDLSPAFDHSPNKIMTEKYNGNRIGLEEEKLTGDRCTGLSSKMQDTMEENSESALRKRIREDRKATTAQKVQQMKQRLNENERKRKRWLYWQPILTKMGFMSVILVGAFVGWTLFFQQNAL
# [3] = molecular target: T3, Tyrosine-protein phosphatase non-receptor type 2 (Homo sapiens) (UniProt P17706); experiment: Inhibition of recombinant human TCPTP (1 to 314 residues) expressed in baculovirus-insect cells at 100 uM relative to control
# T3 sequence (whole entry): T2 sequence (P17706 whole entry)
# [4] = molecular target: T4, Tyrosine-protein phosphatase non-receptor type 1 (Homo sapiens) (UniProt P18031); experiment: Mixed type inhibition of N-terminal His-tagged recombinant human PTP1B expressed in Escherichia coli assessed as reduction in Vmax with increase in Km using varying concentrations of pNPP as substrate preincubated for 15 mins followed by substrate addition and measured after 15 mins by Lineweaver-Burk plot analysis; settings: time 30.0 min
# T4 sequence (whole entry): T1 sequence (P18031 whole entry)
# [5] = molecular target: T1, Tyrosine-protein phosphatase non-receptor type 1; experiment: Mixed type inhibition of N-terminal His-tagged recombinant human PTP1B expressed in Escherichia coli using pNPP as substrate assessed as inhibition constant preincubated for 15 mins followed by substrate addition and measured after 15 mins by Dixon plot analysis
Compound,Ratio IC50 (Homo sapiens),IC50 [1] [µM],IC50 [2] [µM],inhibition [3] [%],inhibition [4],Ki [5] [µM]
SODIUM ORTHOVANAD,0.67,–,–,–,–,–
O=C1c2ccccc2C(=O)c2c1cc(O[C@@H]1O[C@H](CO)[C@@H](O)[C@H](O)[C@H]1O)c(CO)c2O,–,10.8,–,–,–,–
COc1ccc2c(c1O)C(=O)c1cc(O[C@@H]3O[C@H](CO[C@@H]4OC[C@@H](O)[C@H](O)[C@H]4O)[C@@H](O)[C@H](O)[C@H]3O)c(CO)c(O)c1C2=O,–,3.52,–,–,–,–
COc1ccc2c(c1)C(=O)c1cc(O[C@@H]3O[C@H](CO[C@@H]4OC[C@@H](O)[C@H](O)[C@H]4O)[C@@H](O)[C@H](O)[C@H]3O)c(CO)c(O)c1C2=O,8.9,11.3,> 100,< 20,–,–
COc1ccc2c(c1)C(=O)c1cc(O[C@@H]3O[C@H](CO)[C@@H](O)[C@H](O)[C@H]3O)c(CO)c(O)c1C2=O,64.1,1.56,> 100,< 20,–,–
COc1ccc2c(c1O)C(=O)c1cc(O[C@@H]3O[C@H](CO)[C@@H](O)[C@H](O)[C@H]3O)c(CO)c(O)c1C2=O,–,3.05,–,–,–,–
COc1ccc2c(c1)C(=O)c1cc(O)c(CO[C@@H]3O[C@H](CO[C@@H]4OC[C@@H](O)[C@H](O)[C@H]4O)[C@@H](O)[C@H](O)[C@H]3O)c(O)c1C2=O,–,7.52,–,–,–,–
Cc1c(O[C@@H]2O[C@H](CO[C@@H]3OC[C@@H](O)[C@H](O)[C@H]3O)[C@@H](O)[C@H](O)[C@H]2O)cc2c(c1O)C(=O)c1ccc(O)c(O)c1C2=O,74.3,1.05,78,–,Active,1.21
COc1ccc2c(c1O)C(=O)c1cc(O[C@@H]3O[C@H](CO[C@@H]4OC[C@@H](O)[C@H](O)[C@H]4O)[C@@H](O)[C@H](O)[C@H]3O)c(C)c(O)c1C2=O,13.7,7.28,> 100,40,–,–
COc1ccc2c(c1)C(=O)c1cc(O[C@@H]3O[C@H](CO[C@@H]4OC[C@@H](O)[C@H](O)[C@H]4O)[C@@H](O)[C@H](O)[C@H]3O)c(C)c(O)c1C2=O,–,9.04,–,–,–,–
Cc1c(O[C@@H]2O[C@H](CO[C@@H]3OC[C@@H](O)[C@H](O)[C@H]3O)[C@@H](O)[C@H](O)[C@H]2O)cc2c(c1O)C(=O)c1ccccc1C2=O,–,13.7,–,–,–,–
O=C1c2ccccc2C(=O)c2c1cc(O)c(CO[C@@H]1O[C@H](CO)[C@@H](O)[C@H](O)[C@H]1O)c2O,25.9,3.86,> 100,< 20,Active,3.02
